In ChEMBL document CHEMBL3885881, “DrugMatrix”:

Species on record: Rattus norvegicus
Assay: DrugMatrix - Regimen: Daily Repeat
Type: toxicity, organism-based, Sprague-Dawley
Set-up: regimen Daily Repeat, gender Male, age 6-8 weeks
Details: in vivo, sc, route subcutaneous, […]; for ABSOLUTE BASOPHIL / ABSOLUTE EOSINOPHIL / ABSOLUTE LYMPHOCYTE / ABSOLUTE MONOCYTE / ABSOLUTE SEGMENTED NEUTROPHIL / BASOPHIL / EOSINOPHIL / ERYTHROCYTE COUNT / HEMATOCRIT / HEMOGLOBIN / LEUKOCYTE COUNT / LYMPHOCYTE / MEAN CORPUSCULAR HEMOGLOBIN / MEAN CORPUSCULAR HEMOGLOBIN CONCENTRATION / MEAN CORPUSCULAR VOLUME / MONOCYTE / NEUTROPHIL / NUCLEATED RED BLOOD CELLS / PLATELET COUNT: tissue Blood; for ALANINE AMINOTRANSFERASE / ALBUMIN / ALKALINE PHOSPHATASE / ASPARTATE AMINOTRANSFERASE / BLOOD UREA NITROGEN / CARBON DIOXIDE / CHLORIDE / CHOLESTEROL / CREATINE PHOSPHOKINASE / CREATININE / GLUCOSE / LACTATE DEHYDROGENASE / LIPASE / PHOSPHORUS / POTASSIUM / SODIUM / TOTAL BILIRUBIN / TOTAL PROTEIN / URIC ACID: tissue Plasma
[1] = 47.4 mg/kg, 72 h, dose level Low, time 3 day
[2] = 47.4 mg/kg, 120 h, dose level Low, time 5 day
[3] = 474 mg/kg, 72 h, dose level High, time 3 day
[4] = 474 mg/kg, 120 h, dose level High, time 5 day

In the case of `O=C(O)C(Cl)(Cl)Cl` [TRICHLOROACETIC ACID], the “ABSOLUTE BASOPHIL” value [1] is reported as 0 CELLS/uL, the “ABSOLUTE EOSINOPHIL” value [1] is reported as 262.67 CELLS/uL and the “ABSOLUTE LYMPHOCYTE” value [1] is reported as 11309 CELLS/uL. For the same compound, the “ABSOLUTE MONOCYTE” value [1] was 301 CELLS/uL, the “ABSOLUTE SEGMENTED NEUTROPHIL” value [1] was 1027.33 CELLS/uL and the BASOPHIL [1] was 0%. For the same compound, the EOSINOPHIL [1] was 2%, the “ERYTHROCYTE COUNT” value [1] was 5.38 x10E6/uL and the HEMATOCRIT [1] was 34.53%. The HEMOGLOBIN [1] was 12.9 G/DL, the “LEUKOCYTE COUNT” value [1] was 12.9 x10E3/uL and the LYMPHOCYTE [1] was 87.67%. The “MEAN CORPUSCULAR HEMOGLOBIN” value [1] was 24.07 pg, the “MEAN CORPUSCULAR HEMOGLOBIN CONCENTRATION” value [1] was 37.33 G/DL and the “MEAN CORPUSCULAR VOLUME” value [1] was 64.37 fL. The MONOCYTE [1] was 2.33%, the NEUTROPHIL [1] was 8% and the “NUCLEATED RED BLOOD CELLS” value [1] was 0 /100WBC. For the same compound, the “PLATELET COUNT” value [1] was 1349.67 x10E3/uL, the “ALANINE AMINOTRANSFERASE” value [1] was 42.67 u/L and the ALBUMIN [1] was 4.2 G/DL. For the same compound, the “ALKALINE PHOSPHATASE” value [1] was 412.67 u/L, the “ASPARTATE AMINOTRANSFERASE” value [1] was 83.33 u/L and the “BLOOD UREA NITROGEN” value [1] was 15.33 mg/dL. For the same compound, the “CARBON DIOXIDE” value [1] was 25.67 mmol/L, the CHLORIDE [1] was 105.67 MEQ/L and the CHOLESTEROL [1] was 63 mg/dL. The “CREATINE PHOSPHOKINASE” value [1] was 270.33 u/L, the CREATININE [1] was 0.23 mg/dL and the GLUCOSE [1] was 155.33 mg/dL. For the same compound, the “LACTATE DEHYDROGENASE” value [1] was 325.67 u/L, the LIPASE [1] was 8.67 u/L and the PHOSPHORUS [1] was 12.73 mg/dL. The POTASSIUM [1] was 6.4 MEQ/L, the SODIUM [1] was 146.37 MEQ/L and the “TOTAL BILIRUBIN” value [1] was 0.17 mg/dL. The “TOTAL PROTEIN” value [1] was 5.3 G/DL, the “URIC ACID” value [1] was 1.27 mg/dL and the “ABSOLUTE BASOPHIL” value [2] was 0 CELLS/uL. For the same compound, the “ABSOLUTE EOSINOPHIL” value [2] was 0 CELLS/uL, the “ABSOLUTE LYMPHOCYTE” value [2] was 12836 CELLS/uL and the “ABSOLUTE MONOCYTE” value [2] was 332 CELLS/uL. For the same compound, the “ABSOLUTE SEGMENTED NEUTROPHIL” value [2] was 898.67 CELLS/uL, the BASOPHIL [2] was 0% and the EOSINOPHIL [2] was 0%. For the same compound, the “ERYTHROCYTE COUNT” value [2] was 5.4 x10E6/uL, the HEMATOCRIT [2] was 33.93% and the HEMOGLOBIN [2] was 12.87 G/DL. The “LEUKOCYTE COUNT” value [2] was 14.07 x10E3/uL, the LYMPHOCYTE [2] was 91.33% and the “MEAN CORPUSCULAR HEMOGLOBIN” value [2] was 23.87 pg. For the same compound, the “MEAN CORPUSCULAR HEMOGLOBIN CONCENTRATION” value [2] was 37.93 G/DL, the “MEAN CORPUSCULAR VOLUME” value [2] was 62.87 fL and the MONOCYTE [2] was 2.33%. The NEUTROPHIL [2] was 6.33%, the “NUCLEATED RED BLOOD CELLS” value [2] was 0 /100WBC and the “PLATELET COUNT” value [2] was 1378 x10E3/uL. The “ALANINE AMINOTRANSFERASE” value [2] was 40 u/L, the ALBUMIN [2] was 4.2 G/DL and the “ALKALINE PHOSPHATASE” value [2] was 302.67 u/L. The “ASPARTATE AMINOTRANSFERASE” value [2] was 75.33 u/L, the “BLOOD UREA NITROGEN” value [2] was 20 mg/dL and the “CARBON DIOXIDE” value [2] was 28.33 mmol/L. For the same compound, the CHLORIDE [2] was 105.67 MEQ/L, the CHOLESTEROL [2] was 66.33 mg/dL and the “CREATINE PHOSPHOKINASE” value [2] was 164.33 u/L. For the same compound, the CREATININE [2] was 0.19 mg/dL, the GLUCOSE [2] was 166.33 mg/dL and the “LACTATE DEHYDROGENASE” value [2] was 114 u/L. It also gave an LIPASE [2] of 8 u/L, a PHOSPHORUS [2] of 13.1 mg/dL and a POTASSIUM [2] of 6.29 MEQ/L. The SODIUM [2] was 148.4 MEQ/L, the “TOTAL BILIRUBIN” value [2] was 0.17 mg/dL and the “TOTAL PROTEIN” value [2] was 5.63 G/DL. For the same compound, the “URIC ACID” value [2] was 1.6 mg/dL, the “ABSOLUTE BASOPHIL” value [3] was 0 CELLS/uL and the “ABSOLUTE EOSINOPHIL” value [3] was 47.33 CELLS/uL. The “ABSOLUTE LYMPHOCYTE” value [3] was 16441.33 CELLS/uL, the “ABSOLUTE MONOCYTE” value [3] was 452 CELLS/uL and the “ABSOLUTE SEGMENTED NEUTROPHIL” value [3] was 2492.67 CELLS/uL. The BASOPHIL [3] was 0%, the EOSINOPHIL [3] was 0.33% and the “ERYTHROCYTE COUNT” value [3] was 4.84 x10E6/uL. For the same compound, the HEMATOCRIT [3] was 30.03%, the HEMOGLOBIN [3] was 11.4 G/DL and the “LEUKOCYTE COUNT” value [3] was 19.43 x10E3/uL. The LYMPHOCYTE [3] was 85%, the “MEAN CORPUSCULAR HEMOGLOBIN” value [3] was 23.57 pg and the “MEAN CORPUSCULAR HEMOGLOBIN CONCENTRATION” value [3] was 38.03 G/DL. The “MEAN CORPUSCULAR VOLUME” value [3] was 62.03 fL, the MONOCYTE [3] was 2.33% and the NEUTROPHIL [3] was 12.33%. The “NUCLEATED RED BLOOD CELLS” value [3] was 0.33 /100WBC, the “PLATELET COUNT” value [3] was 1335.33 x10E3/uL and the “ALANINE AMINOTRANSFERASE” value [3] was 56.33 u/L. For the same compound, the ALBUMIN [3] was 3.77 G/DL, the “ALKALINE PHOSPHATASE” value [3] was 300.33 u/L and the “ASPARTATE AMINOTRANSFERASE” value [3] was 95 u/L. The “BLOOD UREA NITROGEN” value [3] was 18.33 mg/dL, the “CARBON DIOXIDE” value [3] was 24.33 mmol/L and the CHLORIDE [3] was 105 MEQ/L. For the same compound, the CHOLESTEROL [3] was 68.67 mg/dL, the “CREATINE PHOSPHOKINASE” value [3] was 418.33 u/L and the CREATININE [3] was 0.19 mg/dL. The GLUCOSE [3] was 142.67 mg/dL, the “LACTATE DEHYDROGENASE” value [3] was 520.33 u/L and the LIPASE [3] was 7.67 u/L. For the same compound, the PHOSPHORUS [3] was 12.23 mg/dL, the POTASSIUM [3] was 6.31 MEQ/L and the SODIUM [3] was 146.47 MEQ/L. The “TOTAL BILIRUBIN” value [3] was 0.2 mg/dL, the “TOTAL PROTEIN” value [3] was 5.27 G/DL and the “URIC ACID” value [3] was 1.37 mg/dL. The “ABSOLUTE BASOPHIL” value [4] was 0 CELLS/uL, the “ABSOLUTE EOSINOPHIL” value [4] was 102 CELLS/uL and the “ABSOLUTE LYMPHOCYTE” value [4] was 13327 CELLS/uL. For the same compound, the “ABSOLUTE MONOCYTE” value [4] was 456.67 CELLS/uL, the “ABSOLUTE SEGMENTED NEUTROPHIL” value [4] was 2747.67 CELLS/uL and the BASOPHIL [4] was 0%. The EOSINOPHIL [4] was 0.67%, the “ERYTHROCYTE COUNT” value [4] was 5.19 x10E6/uL and the HEMATOCRIT [4] was 33.1%. For the same compound, the HEMOGLOBIN [4] was 12.5 G/DL, the “LEUKOCYTE COUNT” value [4] was 16.63 x10E3/uL and the LYMPHOCYTE [4] was 80%. For the same compound, the “MEAN CORPUSCULAR HEMOGLOBIN” value [4] was 24.07 pg, the “MEAN CORPUSCULAR HEMOGLOBIN CONCENTRATION” value [4] was 37.77 G/DL and the “MEAN CORPUSCULAR VOLUME” value [4] was 63.73 fL. The MONOCYTE [4] was 2.67%, the NEUTROPHIL [4] was 16.67% and the “NUCLEATED RED BLOOD CELLS” value [4] was 0 /100WBC. The “PLATELET COUNT” value [4] was 1546 x10E3/uL, the “ALANINE AMINOTRANSFERASE” value [4] was 55 u/L and the ALBUMIN [4] was 3.33 G/DL. For the same compound, the “ALKALINE PHOSPHATASE” value [4] was 217 u/L, the “ASPARTATE AMINOTRANSFERASE” value [4] was 111.33 u/L and the “BLOOD UREA NITROGEN” value [4] was 13.67 mg/dL. The “CARBON DIOXIDE” value [4] was 23 mmol/L, the CHLORIDE [4] was 109.33 MEQ/L and the CHOLESTEROL [4] was 66 mg/dL. For the same compound, the “CREATINE PHOSPHOKINASE” value [4] was 1000 u/L, the CREATININE [4] was 0.19 mg/dL and the GLUCOSE [4] was 170 mg/dL. For the same compound, the “LACTATE DEHYDROGENASE” value [4] was 160 u/L, the LIPASE [4] was 8 u/L and the PHOSPHORUS [4] was 12.67 mg/dL. For the same compound, the POTASSIUM [4] was 6.26 MEQ/L, the SODIUM [4] was 147.7 MEQ/L and the “TOTAL BILIRUBIN” value [4] was 0.17 mg/dL. For the same compound, the “TOTAL PROTEIN” value [4] was 5.03 G/DL and the “URIC ACID” value [4] was 2.6 mg/dL.
